Results on 19 molecules are retold here after patent US8471005B2 (Cephalon, Inc., priority 2008, dated 2013).

pIC50: −log10 of the molar value.

Assay [1] has as its target T1, JAK2 (Homo sapiens, UniProt O60674).
T1 construct: host or cells: baculovirus expression system
The assay can be described thus: Recombinant Human JAK2 Kinase Assay (TRF). The format is biochemical. The note with it: JAK2 Kinase Inhibition; read-out: JAK2 Potency. In a few lines: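 Baculovirus-expressed JAK2 (15 ng/ml) phosphorylated a biotinylated 15-mer peptide captured on Neutravidin-coated plates, in 20 mM HEPES pH 7.2 with 0.2 μM ATP, 1 mM MnCl2, 0.1% BSA and 2.5% DMSO. Reaction ran 20 min at room temperature; phosphopeptide was detected by time-resolved fluorescence with Eu-N1-labelled PY100 antibody.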

In assay [2] the target is T2, ALK (Homo sapiens, UniProt Q9UM73).
T2 construct: host or cells: baculovirus expression system
T2 sequence (Q9UM73 19-1620): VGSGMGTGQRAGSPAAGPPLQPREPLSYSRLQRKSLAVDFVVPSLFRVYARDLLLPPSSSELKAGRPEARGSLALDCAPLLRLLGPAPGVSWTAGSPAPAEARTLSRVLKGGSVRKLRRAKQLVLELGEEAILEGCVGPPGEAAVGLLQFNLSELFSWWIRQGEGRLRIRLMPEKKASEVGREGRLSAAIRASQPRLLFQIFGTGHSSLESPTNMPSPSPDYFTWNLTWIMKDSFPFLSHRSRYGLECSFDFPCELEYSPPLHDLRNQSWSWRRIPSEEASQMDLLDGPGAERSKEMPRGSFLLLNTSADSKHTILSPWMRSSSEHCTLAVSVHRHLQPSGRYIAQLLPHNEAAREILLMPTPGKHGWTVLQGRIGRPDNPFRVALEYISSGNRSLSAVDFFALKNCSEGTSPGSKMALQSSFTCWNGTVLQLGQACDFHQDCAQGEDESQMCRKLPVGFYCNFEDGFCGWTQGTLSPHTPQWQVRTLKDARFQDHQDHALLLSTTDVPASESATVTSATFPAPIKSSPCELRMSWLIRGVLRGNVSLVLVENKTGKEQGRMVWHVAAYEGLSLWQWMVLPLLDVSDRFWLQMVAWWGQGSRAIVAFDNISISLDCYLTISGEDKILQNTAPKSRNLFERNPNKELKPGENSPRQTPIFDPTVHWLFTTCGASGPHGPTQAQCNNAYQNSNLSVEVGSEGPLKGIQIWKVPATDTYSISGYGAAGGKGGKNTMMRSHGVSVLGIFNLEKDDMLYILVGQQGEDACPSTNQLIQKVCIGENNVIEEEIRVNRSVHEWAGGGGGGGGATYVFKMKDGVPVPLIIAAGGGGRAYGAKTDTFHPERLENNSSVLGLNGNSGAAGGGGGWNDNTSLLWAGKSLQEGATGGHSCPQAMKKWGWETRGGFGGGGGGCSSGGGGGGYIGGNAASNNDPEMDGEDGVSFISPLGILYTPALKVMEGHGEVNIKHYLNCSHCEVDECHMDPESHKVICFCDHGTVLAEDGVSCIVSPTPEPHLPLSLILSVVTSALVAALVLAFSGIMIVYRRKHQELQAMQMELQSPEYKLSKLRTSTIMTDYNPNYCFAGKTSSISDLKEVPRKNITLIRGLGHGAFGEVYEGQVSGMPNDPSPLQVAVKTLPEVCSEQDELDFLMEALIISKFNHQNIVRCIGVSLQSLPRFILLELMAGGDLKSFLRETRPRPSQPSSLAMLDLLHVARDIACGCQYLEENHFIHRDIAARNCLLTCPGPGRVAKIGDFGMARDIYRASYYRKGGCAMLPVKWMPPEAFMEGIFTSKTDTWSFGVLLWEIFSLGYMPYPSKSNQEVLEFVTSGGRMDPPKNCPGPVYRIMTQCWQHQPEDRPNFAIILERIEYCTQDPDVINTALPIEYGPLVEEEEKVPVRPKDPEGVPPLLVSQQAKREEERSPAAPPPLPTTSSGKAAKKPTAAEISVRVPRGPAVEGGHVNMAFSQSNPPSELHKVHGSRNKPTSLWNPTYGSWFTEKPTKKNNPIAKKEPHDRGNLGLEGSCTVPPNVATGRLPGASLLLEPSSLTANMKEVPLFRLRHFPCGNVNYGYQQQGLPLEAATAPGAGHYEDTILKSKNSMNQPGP
The assay can be described thus: ALK Kinase Assay (ELISA/TRF, PLC-γ substrate). It counts as biochemical. The note with it: ALK Kinase Inhibition; read-out: ALK Potency. In outline: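 Read-out is time-resolved fluorescence from a Eu-N1-labeled PT66 antibody that binds phosphorylated PLC-γ, the substrate coated at 10 μg/mL in TBS. ALK at 30 ng/ml starts the reaction, which runs 15 minutes at 37° C.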

T1 sequence (O60674 whole entry): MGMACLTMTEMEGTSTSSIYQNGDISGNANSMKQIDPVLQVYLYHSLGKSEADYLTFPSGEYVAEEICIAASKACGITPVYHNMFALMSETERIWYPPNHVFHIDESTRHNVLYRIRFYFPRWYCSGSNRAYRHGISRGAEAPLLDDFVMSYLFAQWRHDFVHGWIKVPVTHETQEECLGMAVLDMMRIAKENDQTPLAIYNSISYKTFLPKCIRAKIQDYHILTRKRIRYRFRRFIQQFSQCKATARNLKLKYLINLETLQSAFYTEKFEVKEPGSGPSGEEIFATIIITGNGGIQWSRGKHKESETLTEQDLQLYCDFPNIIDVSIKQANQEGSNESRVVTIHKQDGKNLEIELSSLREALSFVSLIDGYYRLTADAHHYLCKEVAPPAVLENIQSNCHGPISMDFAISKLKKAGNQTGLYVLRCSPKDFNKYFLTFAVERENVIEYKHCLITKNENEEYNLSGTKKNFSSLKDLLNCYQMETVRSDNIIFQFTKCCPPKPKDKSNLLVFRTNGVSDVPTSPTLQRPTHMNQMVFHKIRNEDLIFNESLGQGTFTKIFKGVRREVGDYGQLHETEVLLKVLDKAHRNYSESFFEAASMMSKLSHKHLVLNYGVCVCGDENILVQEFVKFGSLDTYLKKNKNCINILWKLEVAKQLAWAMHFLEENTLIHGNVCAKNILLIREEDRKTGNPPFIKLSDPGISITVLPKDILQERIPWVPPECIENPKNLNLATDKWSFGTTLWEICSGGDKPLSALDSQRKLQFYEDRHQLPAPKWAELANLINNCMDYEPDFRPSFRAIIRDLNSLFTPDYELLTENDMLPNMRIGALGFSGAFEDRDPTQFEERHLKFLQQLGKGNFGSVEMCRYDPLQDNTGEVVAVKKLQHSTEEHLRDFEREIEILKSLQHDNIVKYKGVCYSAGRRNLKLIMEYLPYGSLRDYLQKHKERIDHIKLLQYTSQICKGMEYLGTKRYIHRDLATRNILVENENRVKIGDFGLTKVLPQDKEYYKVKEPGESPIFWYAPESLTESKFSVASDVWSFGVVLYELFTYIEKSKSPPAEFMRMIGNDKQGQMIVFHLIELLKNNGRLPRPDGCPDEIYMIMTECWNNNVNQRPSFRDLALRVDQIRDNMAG

`CN1CCN(C(=O)C(F)(F)c2ccc(Nc3ncc4ccc(-c5cccc(S(=O)(=O)NC(C)(C)C)c5)n4n3)cc2)CC1` [Example 1515, N-tert-Butyl-3-(2-{4-[1,1-difluoro-2-(4-methyl-piperazin-1-yl)-2-oxo-ethyl]-phenylamino}-pyrrolo[2,1-f][1,2,4]triazin-7-yl)-benzenesulfonamide]: the pIC50 was > 7.00 in assay [1] and 6.00 to 7.00 in assay [2].
In the same order, the values of `COc1ccc(-c2ccc3cnc(Nc4ccc(C(F)(F)C(=O)N5CCN(C)CC5)cc4)nn23)cn1` [Example 1516, 2,2-Difluoro-2-{4-[7-(6-methoxy-pyridin-3-yl)-pyrrolo[2,1-f][1,2,4]triazin-2-ylamino]-phenyl}-1-(4-methyl-piperazin-1-yl)-ethanone] are > 7.00 and 5.00 to 6.00.
The corresponding values for `CN(c1ccccc1-c1ccc2cnc(Nc3ccc4nc(CN5CCOCC5)[nH]c4c3)nn12)S(C)(=O)=O` [Example 1517, N-Methyl-N-{2-[2-(2-morpholin-4-ylmethyl-3H-benzimidazol-5-ylamino)-pyrrolo[2,1-f][1,2,4]triazin-7-yl]-phenyl}-methanesulfonamide] are > 7.00 and 6.00 to 7.00.
For the molecule `COc1ccccc1-c1ccc2cnc(Nc3ccc4nc(CN5CCOCC5)[nH]c4c3)nn12` [Example 1518, [7-(2-Methoxy-phenyl)-pyrrolo[2,1-f][1,2,4]triazin-2-yl]-(2-morpholin-4-ylmethyl-3H-benzimidazol-5-yl)-amine], the pIC50 is > 7.00 in assay [1] and 6.00 to 7.00 in assay [2].
The corresponding values for `COc1ccc(-c2ccc3cnc(Nc4cccc(C5CN(C)CCN5C)c4)nn23)cn1` (centres unmarked) [Example 1519, [3-(1,4-Dimethyl-piperazin-2-yl)-phenyl]-[7-(6-methoxy-pyridin-3-yl)-pyrrolo[2,1-f][1,2,4]triazin-2-yl]-amine] are > 7.00 and 5.00 to 6.00.
The corresponding values for `CC(C)(C)NS(=O)(=O)c1cccc(-c2ccc3cnc(Nc4ccc5nc(CN6CCN(CCO)CC6)[nH]c5c4)nn23)c1` [Example 1520, N-tert-Butyl-3-(2-{2-[4-(2-hydroxy-ethyl)-piperazin-1-ylmethyl]-3H-benzimidazol-5-ylamino}-pyrrolo[2,1-f][1,2,4]triazin-7-yl)-benzenesulfonamide] are > 7.00 and 6.00 to 7.00.
The corresponding values for `CN(c1ccccc1-c1ccc2cnc(Nc3ccc4nc(CN5CCN(CCO)CC5)[nH]c4c3)nn12)S(C)(=O)=O` [Example 1521, N-[2-(2-{2-[4-(2-Hydroxy-ethyl)-piperazin-1-ylmethyl]-3H-benzimidazol-5-ylamino}-pyrrolo[2,1-f][1,2,4]triazin-7-yl)-phenyl]-N-methyl-methanesulfonamide] are > 7.00 and 6.00 to 7.00.
Take `COc1ccccc1-c1ccc2cnc(Nc3ccc4nc(CN5CCN(CCO)CC5)[nH]c4c3)nn12` [Example 1522, 2-(4-{6-[7-(2-Methoxy-phenyl)-pyrrolo[2,1-f][1,2,4]triazin-2-ylamino]-1H-benzimidazol-2-ylmethyl}-piperazin-1-yl)-ethanol]: the pIC50 in assay [1] was > 7.00; in assay [2] it was 6.00 to 7.00.
In the same order, the values of `COc1ccc(-c2ccc3cnc(Nc4ccc5nc(CN6CCN(CCO)CC6)[nH]c5c4)nn23)cn1` [Example 1523, 2-(4-{6-[7-(6-Methoxy-pyridin-3-yl)-pyrrolo[2,1-f][1,2,4]triazin-2-ylamino]-1H-benzimidazol-2-ylmethyl}-piperazin-1-yl)-ethanol] are > 7.00 and 5.00 to 6.00.
In the same order, the values of `CN1CCN(Cc2nc3ccc(Nc4ncc5ccc(-c6cccc(S(=O)(=O)NC(C)(C)C)c6)n5n4)cc3[nH]2)CC1` [Example 1524, N-tert-Butyl-3-{2-[2-(4-methyl-piperazin-1-ylmethyl)-3H-benzimidazol-5-ylamino]-pyrrolo[2,1-f][1,2,4]triazin-7-yl}-benzenesulfonamide] are > 7.00 and 6.00 to 7.00.
In the same order, the values of `CN1CCN(Cc2nc3ccc(Nc4ncc5ccc(-c6ccccc6N(C)S(C)(=O)=O)n5n4)cc3[nH]2)CC1` [Example 1525, N-Methyl-N-(2-{2-[2-(4-methyl-piperazin-1-ylmethyl)-3H-benzimidazol-5-ylamino]-pyrrolo[2,1-f][1,2,4]triazin-7-yl}-phenyl)-methanesulfonamide] are > 7.00 and 6.00 to 7.00.
Consider `COc1ccccc1-c1ccc2cnc(Nc3ccc4nc(CN5CCN(C)CC5)[nH]c4c3)nn12` [Example 1526, [7-(2-Methoxy-phenyl)-pyrrolo[2,1-f][1,2,4]triazin-2-yl]-[2-(4-methyl-piperazin-1-ylmethyl)-3H-benzimidazol-5-yl]-amine], for which the pIC50 in assay [1] is > 7.00; in assay [2], 6.00 to 7.00.
In the same order, the values of `COc1ccc(-c2ccc3cnc(Nc4ccc5nc(CN6CCN(C)CC6)[nH]c5c4)nn23)cn1` [Example 1527, [7-(6-Methoxy-pyridin-3-yl)-pyrrolo[2,1-f][1,2,4]triazin-2-yl]-[2-(4-methyl-piperazin-1-ylmethyl)-3H-benzimidazol-5-yl]-amine] are > 7.00 and 6.00 to 7.00.
In the same order, the values of `CC(C)(C)NS(=O)(=O)c1cccc(-c2ccc3cnc(Nc4ccc(C5CNCCN5)cc4)nn23)c1` (centres unmarked) [Example 1528, N-tert-Butyl-3-[2-(4-piperazin-2-yl-phenylamino)-pyrrolo[2,1-f][1,2,4]triazin-7-yl]-benzenesulfonamide] are > 7.00 and 6.00 to 7.00.
In the same order, the values of `COc1ccc(-c2ccc3cnc(Nc4ccc(C5CNCCN5)cc4)nn23)cn1` (centres unmarked) [Example 1529, [7-(6-Methoxy-pyridin-3-yl)-pyrrolo[2,1-f][1,2,4]triazin-2-yl]-(4-piperazin-2-yl-phenyl)-amine] are > 7.00 and 6.00 to 7.00.
On to `COc1ccc(-c2ccc3cnc(Nc4ccc(C5CN(C)CCN5C)cc4)nn23)cn1` (centres unmarked) [Example 1530, [4-(1,4-Dimethyl-piperazin-2-yl)-phenyl]-[7-(6-methoxy-pyridin-3-yl)-pyrrolo[2,1-f][1,2,4]triazin-2-yl]-amine], for which the pIC50 in assay [1] is > 7.00; in assay [2], 6.00 to 7.00.
As to `COc1cccnc1-c1ccc2cnc(Nc3ccc(C4CCN(CC(N)=O)CC4)cc3)nn12` [Example 1531, 2-(4-{4-[7-(3-Methoxy-pyridin-2-yl)-pyrrolo[2,1-f][1,2,4]triazin-2-ylamino]-phenyl}-piperidin-1-yl)-acetamide], the pIC50 in assay [1] was > 7.00; in assay [2], 5.00 to 6.00.
For `COc1cc(C2CCN(CC(N)=O)CC2)ccc1Nc1ncc2ccc(-c3ncccc3OC)n2n1` [Example 1532, 2-(4-{3-Methoxy-4-[7-(3-methoxy-pyridin-2-yl)-pyrrolo[2,1-f][1,2,4]triazin-2-ylamino]-phenyl}-piperidin-1-yl)-acetamide], the pIC50 in assay [1] and in assay [2] was 5.00 to 6.00 throughout.
On to `COc1cc(C2CCN(CC(N)=O)CC2)ccc1Nc1ncc2ccc(-c3cccc4c3OC(F)(F)O4)n2n1` [Example 1533, 2-(4-{4-[7-(2,2-Difluoro-benzo[1,3]dioxol-4-yl)-pyrrolo[2,1-f][1,2,4]triazin-2-ylamino]-3-methoxy-phenyl}-piperidin-1-yl)-acetamide], for which the results for the pIC50 in assay [1] and in assay [2] were 5.00 to 6.00 and > 7.00, respectively.
